Entries after “also recorded” stand apart in the source; their conditions may differ. Where a name gives a salt, the structure may show the parent alone.
What was measured:
[1] = tested on: AVP-induced dermal vasoconstriction; test: AVP-induced dermal vasoconstriction in Phase I subjects; format: in vivo, human; conditions: 50 mg IV
[2] = Safety and tolerability in Phase I studies (approximately 250 subjects); format: in vivo, human
[3] = Example 3: placebo-controlled study of YM087 40 mg IV twice, relief of pulmonary congestion in exacerbation of congestive heart failure; format: in vivo, human; conditions: FIG. 8; listed as conivaptan, hydrochloride
Procedure: Patient who meets the inclusion criteria will then be randomized to 1 of 2 treatment group: double-blind treatment phase. […] Patients were administered 100% oxygen for 5 to 10 minutes, and blood gases were measured for assessment of A-a gradient. A baseline respiratory rate is measured 5 minutes prior to administration of study medication (RR must be ≧22 to meet inclusion criteria). […] All patients received usual care at the discretion of the investigator including IV loop diuretics, oxygen, morphine, and IV vasodilators. All patients were administered IV furosemide 20 mg as a minimum dose initially. No additional doses of diuretics should be administered for at least 2 hours after administration of the first dose of study medication; the dose was subsequently adjusted as needed based on the patient's clinical status at the discretion of the investigator. […] Body weight was assessed prior the second dose of study medication. […] During the study, the patient should be receiving the same % oxygen for all respiratory rate and A-a gradient assessments. […] Clinical laboratory parameters were assessed 8 and 24 hours after the first dose of study medication. Serum electrolytes, BUN, and creatinine were measured 4, 8, 12, 18, and 24 hours after administration of the first dose of study medication.

V2-receptor = molecular target: T1, V2-receptor (Homo sapiens, UniProt P30518); test: Aquaretic action in normal subjects (evidence of V2-receptor antagonism); format: in vivo; conditions: for Dose at which aquaretic action with decrease in urine osmolarity starts: normal subjects
T1 construct: from tissue; host or cells: healthy human subjects in vivo (renal effect)
T1 sequence (P30518 whole entry): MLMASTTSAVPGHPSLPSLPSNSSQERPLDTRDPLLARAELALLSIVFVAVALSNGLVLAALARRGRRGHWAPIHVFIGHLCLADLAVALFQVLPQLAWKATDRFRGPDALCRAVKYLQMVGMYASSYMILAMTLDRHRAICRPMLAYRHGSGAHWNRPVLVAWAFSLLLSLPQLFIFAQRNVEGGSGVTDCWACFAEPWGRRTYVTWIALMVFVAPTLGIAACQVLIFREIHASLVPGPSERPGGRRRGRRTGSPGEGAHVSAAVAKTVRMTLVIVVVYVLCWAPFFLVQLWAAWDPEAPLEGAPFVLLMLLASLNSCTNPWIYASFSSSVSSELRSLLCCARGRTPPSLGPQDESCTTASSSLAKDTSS

[4] = Example 1: double-blind, placebo-controlled IV dose-response study of cardiopulmonary hemodynamics in patients with Class III/IV heart failure; format: in vivo, human
Procedure: Patients must be receiving background therapy of diuretics, ACE inhibitors, and optionally digoxin and/or β-blocker; patients are stratified as to whether they are receiving concomitant β-blocker treatment. Patients should take their daily dose of concomitant heart failure medications within 2 hours of catheter insertion. No additional doses of background heart failure medications should be administered during the study treatment phase. After insertion of a balloon-flotation pulmonary artery catheter, serial measurements are obtained over an 8-to 18-hour baseline and stabilization period.
Hemodynamic parameters and vital signs are measured at baseline during the 2 hours prior to drug administration and 30 minutes, 1, 2, 3, 4, 6, 8, and 12 hours after start of the IV infusion. A urethral catheter is placed and urine output is measured hourly for 2 hours prior until 12 hours post-study drug administration. Fluid intake is restricted to 250 mL every 2 hours (except at time of IV infusion) from time of insertion of a Swan-Ganz catheter and throughout the treatment period. […] Serum electrolytes, BUN, creatinine, and serum osmolality are measured at baseline and 4 and 12 hours post treatment. Clinical laboratory and vasopressin plasma levels are measured at baseline and 12 hours post-drug administration. A numeric rating scale for assessing dyspnea is administered at baseline and 12 hours after study drug administration.
Patients refrain from taking concomitant heart failure medications during the 12-hour treatment period. Patients are stratified as to whether they are receiving concomitant treatment with a β-blocker. Hemodynamic parameters (cardiac output, intrapulmonary and systemic pressures) and vital signs are measured at 0.5, 1, 2, 3, 4, 6, 8, and 12 hours after start of the IV infusion. Clinical laboratory and vasopressin plasma levels are measured 12 hours postdose. […] Serum electrolytes, BUN, creatinine and serum osmolality are measured at 4 and 12 hours posttreatment. Hourly urine output measurements are obtained during the entire 12-hour treatment phase. The numeric rating scale for assessing dyspnea is administered 12 hours postadministration of study medication.
For this study, hemodynamic efficacy parameters of PCWP, CI, SVR, and PVR are evaluated in terms of their response profile. The response profile is assessed in terms of peak change, and area under the curve (AUC) delimited by the parameter change from baseline and measurement times. The peak change is defined as the maximum change from baseline, within the 3 to 6 hours after treatment administration, in the hemodynamic parameter of interest. The baseline value is considered the last acceptable measurement taken before treatment administration. The AUC is determined using the “linear trapezoidal rule,” which delimits areas of each trapezoid by: two points on the graph of change from baseline against time, perpendiculars from the points to the X-axis, and the X-axis are summed up to get AUC. If measurements are missing at certain times, the AUC are calculated using all other available observations. Dose response over the treatment groups are assessed for selected measures.
The secondary parameter of urine output is summarized at baseline, and each collection time. In addition, a numeric rating scale is used for assessing dyspnea. The corresponding change from baseline for these parameters is summarized. Descriptive summaries include mean, standard error, median, minimum, and maximum. Other concurrently measured hemodynamic parameters (ie, RA, PAs, PAd, cuff SBP, cuff DBP, calculated MAP, and HR) is also summarized.
Hemodynamic assessments are obtained at baseline and at 0.5, 1, 2, 3, 4, 6, 8, and 12 hours after administration of study medication.

[5] = tested on: AVP-induced platelet aggregation; test: AVP-induced platelet aggregation in Phase I subjects (evidence of V1A antagonist activity); format: in vivo, human; conditions: 20 mg/day orally or 2.5 mg IV
[6] = Example 2: placebo-controlled study of YM087 20 mg IV twice, relief of pulmonary congestion in acute decompensated heart failure; format: in vivo, human; conditions: listed as conivaptan, hydrochloride
Procedure: The trial explores the effect on relief of pulmonary congestion in patients with a history of NYHA Class II-IV heart failure hospitalized in a monitored unit for acute decompensated heart failure. Patients may be on background therapy optionally with ACE-inhibitors, diuretics, digoxin, and β-blockers as long as these medications (excepting diuretics) were initiated prior to admission. On arrival to the hospital, the patient was assessed for enrollment criteria. If the criteria are met, consent was obtained and the patient enrolled. Patients needing treatment with a parenteral inotropic agent (eg milrinone; dobutamine) or who are intubated are excluded. Respiratory rate will be measured. Clinical laboratory parameters are measured if not assessed within 2 hours of screening. Once consented, the patient's clinical distress was assessed by vital signs, the Acute Heart Failure Score, the Physician/Study Coordinator Clinical Assessment Scale for patient's respiratory and global status, and the Patient Visual Analog Scale for respiratory and global status. […] The baseline respiratory rate was measured 5 minutes prior to administration of study medication (must be ≧24 to meet inclusion criteria). […] Clinical laboratory parameters were assessed 8 and 24 hours after start of the first infusion of study medication. […]

[7] = approximately 250 subjects treated

## Cc1nc2c([nH]1)-c1ccccc1N(C(=O)c1ccc(NC(=O)c3ccccc3-c3ccccc3)cc1)CC2 [YM087, N-[4-(2-methyl-4,5,6-tetrahydroimidazo[4,5-d][1]benzazepin-6-ylcarbonyl)phenyl]biphenyl-2-carboxamide hydrochloride]
[1]
  Inhibition of AVP-induced dermal vasoconstriction: Total inhibition
[2]; 120 mg QD or 60 mg BID orally, or 50 mg IV
  Tolerability of aquaretic effects at higher doses: too uncomfortable to be tolerable
[2]; [7]
  Drug-related serious adverse events: no drug-related serious adverse events were reported
  Major safety concerns: no major safety concerns were identified
[2]; at higher doses
  Urinary osmolarity: decreased
[2]; at higher doses, with or without an increase in plasma sodium
  Plasma osmolarity: increased
[2]; human, in vivo
  Biochemical or hematological laboratory parameters: No drug-related trend
  Most frequent adverse events regardless of treatment association: mild or moderate thirst and mild headache
  Vital signs (blood pressure and heart rate): unaffected
[2]; human, in vivo, hydrochloride
  Other adverse events: flushes, a sensation of cold extremities, abdominal complaints, abnormal stools, syncope, dizziness, palpitations, and postural hypotension
[2]; one patient with severe heart failure, 40 mg BID
  Grand mal seizure: grand mal seizure that was possibly related to YM087
[2]; three subjects who received YM087, one who received placebo, hydrochloride
  Leukopenia / decrease in white blood cell counts: minor, reversible decrease in white blood cell counts; also recorded: minor, reversible leukopenia
[3]
  Alveolar-arterial gradient compared to placebo: improved; also recorded: apparent improvement
V2-receptor; IV 50 mg/day
  Duration of increased urine production rate postdosing: ≤ 6 h
V2-receptor; IV doses up to 250 μg/kg
  Duration of increased urine production rate postdosing: up to 3 hours
V2-receptor; IV
  Dose at which aquaretic action with decrease in urine osmolarity starts: 50 µg/kg
V2-receptor; oral
  Dose at which aquaretic action with decrease in urine osmolarity starts: 15 mg
[4]; 40 mg IV dose, FIG. 1
  Reduction of right atrial pressure (RAP): ≤ 3 mm Hg
[4]; 40 mg IV dose, FIG. 2
  Reduction of pulmonary artery systolic pressure (PAs): ≤ 4 mm Hg
[4]; FIG. 1
  Right atrial pressure (RAP): reduce
[4]; FIG. 2
  Pulmonary artery systolic pressure (PAS): reduce
[4]; FIG. 3
  Mean arterial pressure (MAP): no effect
[4]; FIG. 4
  Systolic blood pressure (SBP): no effect
[4]; human, in vivo
  Systemic hemodynamics: no effect
[4]; post IV dose of 10, 20, 40 mg, FIG. 9
  Changes in inspiratory crackles compared to placebo: fewer patients on conivaptan had worsened inspiratory crackles
[5]
  Inhibition of AVP-induced platelet aggregation: Inhibition
[6]; FIG. 6
  Patient visual analog scale of respiratory status: improved respiratory status; also recorded: improvement
[6]; FIG. 7
  Patient numeric rating scale of respiratory status: improved respiratory status; also recorded: improvement

From patent publication US6740648B2, “Treatment of pulmonary hypertension” (Warner-Lambert Company, priority 2000, dated 2004)
